Patent US20040106545A1, “Compounds and methods for modulating cell adhesion” (priority 1996, published 2004)
“Also recorded” adds a separate entry of the source. Where two headings read alike, the source gives them in different places. Positions of bridges follow the written chain, without caps; N, C: chain ends. Residues, ends and D or L forms follow the SMILES beside them.

Key:
[1] = target: T1, chick N-cadherin (Gallus gallus, UniProt P10288); assay: Neurite outgrowth of rat cerebellar neurons on N-cadherin expressing 3T3 monolayers (Example 15); type: cell-based; settings: for inhibitory activity on N-cadherin dependent neurite outgrowth, structure/activity statements: Tables 8 and 9
T1 construct: expressed in transfected cells; host or cells: 3T3 fibroblasts (monolayer); rat post-natal day 2-3 cerebellar neurons plated on top
T1 sequence (P10288 165-912): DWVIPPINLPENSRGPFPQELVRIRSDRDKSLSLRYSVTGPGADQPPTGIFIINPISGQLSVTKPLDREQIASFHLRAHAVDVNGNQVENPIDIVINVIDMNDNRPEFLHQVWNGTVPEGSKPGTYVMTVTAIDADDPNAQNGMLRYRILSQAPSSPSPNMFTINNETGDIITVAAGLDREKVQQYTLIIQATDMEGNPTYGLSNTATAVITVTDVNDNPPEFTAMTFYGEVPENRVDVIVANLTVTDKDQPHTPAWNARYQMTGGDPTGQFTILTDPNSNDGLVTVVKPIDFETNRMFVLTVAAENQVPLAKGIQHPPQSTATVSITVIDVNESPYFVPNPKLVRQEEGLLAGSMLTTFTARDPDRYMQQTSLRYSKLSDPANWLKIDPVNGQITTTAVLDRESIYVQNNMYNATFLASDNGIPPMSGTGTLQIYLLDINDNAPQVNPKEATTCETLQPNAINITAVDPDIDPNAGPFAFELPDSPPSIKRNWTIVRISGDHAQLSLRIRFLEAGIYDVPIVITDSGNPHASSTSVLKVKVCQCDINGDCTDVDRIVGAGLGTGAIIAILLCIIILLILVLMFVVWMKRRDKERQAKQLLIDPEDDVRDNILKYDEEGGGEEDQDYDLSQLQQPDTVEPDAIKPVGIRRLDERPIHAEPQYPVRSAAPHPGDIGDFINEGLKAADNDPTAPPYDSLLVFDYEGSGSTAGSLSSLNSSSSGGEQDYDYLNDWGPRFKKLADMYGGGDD
Experimental: (§1) Cell culture and neurite outgrowth assays. Co-cultures of cerebellar neurons on monolayers of control 3T3 cells and monolayers of transfected 3T3 cells that express physiological levels of chick N-cadherin or human L1 were established as previously described (Williams et al., Neuron 13:583-594, 1994). In brief, 80,000 3T3 cells (control and transfected) were plated into individual chambers of an eight-chamber tissue culture slide coated with polylysine and fibronectin and cultured in DMEM/10% FCS. After 24 hours, when confluent monolayers had formed, the medium was removed and 3000 cerebellar neurons isolated from post-natal day 2-3 rats were plated into each well in SATO media (Doherty et al., Nature 343:464-466, 1990) supplemented with 2% FCS. All of the test peptides were added immediately before the neurons as a 2× stock prepared in SATO/2% FCS. The co-cultures were maintained for 16-18 hours, at which time they were fixed and immunostained for GAP-43 which is present only in the neurons and delineates the neuritic processes. The mean length of the longest neurite per cell was measured for 150-200 neurons sampled in replicate cultures as previously described (Williams et al., Neuron 13:583-594, 1994). […] Dose-response curves were evaluated and the EC50 values determined.

[2] = system: Madin Darby canine kidney (MDCK) cells; type: cell-based; settings: for EC50, decrease of electrical resistance across MDCK cell monolayer: 18 hours
Experimental: Yet another assay evaluates the effect of a modulating agent on the electrical resistance across a monolayer of cells. For example, Madin Darby canine kidney (MDCK) cells can be exposed to the modulating agent dissolved in medium (e.g., at a final concentration of 0.5 mg/ml for a period of 24 hours). The effect on electrical resistance can be measured using standard techniques. This assay evaluates the effect of a modulating agent on tight junction formation in epithelial cells. In general, the presence of 500 μg/mL modulating agent should result in a statistically significant decrease in electrical resistance after 24 hours.
Madin Darby canine kidney (MDCK) cells were plated in Millicells (Millipore, Bedford, Mass.), at a density of 300,000 cells per Millicell, and cultured in Dulbecco's Modified Eagle Medium (DMEM; Sigma, St. Louis, Mo.) containing 5% fetal calf serum (Sigma, St. Louis, Mo.) until monolayers formed. Monolayers were exposed to the modulating agent dissolved in medium. The electrical resistance was measured using the EVOM device (World Precision Instruments, Sarasota, Fla.). At the time of measurement, fresh medium, with or without the modulating agent, may be added to the Millicells.

[3] = target: L1 (Homo sapiens, UniProt P32004); assay: Neurite outgrowth of rat cerebellar neurons on L1 expressing 3T3 monolayers (Example 15); type: cell-based; set-up: expressed in transfected cells; rat cerebellar neurons on top; settings: for inhibition at 125 µg/mL: 125 μg/ml, read-out: % Inhibition of L1 Response; for effect on L1 stimulated neurite outgrowth (in words): concentrations that inhibited the N-cadherin response (100 μg/mL in FIG. 24)
Experimental: as §1
Other cell adhesion molecules, such as L1, can stimulate neurite outgrowth, and this response shares the same downstream signaling steps as the N-cadherin response. […] As previously reported, L1 stimulated neurite outgrowth from cerebellar neurons.

[4] = system: Madin Darby canine kidney (MDCK) cells; type: cell-based; settings: 18 h
[5] = system: SKOV3 cells; assay: Disruption of human ovarian cancer cell (SKOV3) adhesion; type: cell-based; settings: 1 mg/mL media, within 24 hours
Experimental: FIGS. 37A and 37B are photographs illustrating the effect of N—Ac-CHAVC-Y—NH2 (SEQ ID NO:84) on SKOV3 cell adhesion. A confluent culture of SKOV3 cells was briefly trypsinated and counted using a hemacytometer. The cells were diluted to 5×10^3/mL in MEM (Gibco BRL) containing 10% FBS (Wisent). A 10 mg/mL solution of peptide was added directly to the media at a concentration of 1 mg/mL. The plate was incubated in a humidified chamber at 37° C. for 24 hours in 5% CO2. Morphological changes were evaluated after 24 hours.
The human ovarian cancer cell line SKOV3 (ATCC #HTB-77) expresses N-cadherin. SKOV3 cells were cultured in a modified MEM-based media containing 10% FCS. Cells were grown in T-250 culture flasks and maintained by periodic subculturing. Cyclic peptides were tested on cells grown in individual wells of 96-well culture dishes (surface area of each well was 0.32 cm^2). Cells were harvested from flasks and seeded at a density of 50,000 cells per well in 0.1 mL media containing the cyclic peptides at concentrations of 1, 0.1, or 0.01 mg/mL, or in the absence of cyclic peptide. Media control wells were also established. Cultures were evaluated periodically by microscopic examination under both bright field and phase contrast conditions. Cultures were maintained for 48 hours.

[6] = target: T2, N-cadherin (Gallus gallus, UniProt P10288); assay: Neurite outgrowth inhibition, rat neurons (Example 21); type: cell-based; settings: read-out: % Inhibition of neurite outgrowth; 250 μg/mL
T2 construct: expressed in transfected cells; host or cells: 3T3 fibroblasts (monolayer)
T2 sequence (P10288 165-912): T1 sequence (P10288 165-912)

[7] = system: HMVEC; type: cell-based, human; settings: 3 h
Experimental: (§2) N—Ac-CHAVC-NH2 (SEQ ID NO:10) and the control peptide N—Ac-CHGVC-NH2 (SEQ ID NO:11) were evaluated for possible cytotoxic effects on human microvascular endothelial (HMVEC; Clonetics), human umbilical vein endothelial (HUVEC; ATCC #CRL-1730), IAFp2 (human fibroblast cell line; Institute Armand-Frapier, Montreal, Quebec), WI-38 (human fibroblast cell line; ATCC #CCL-75), MDA-MB231 (human breast cancer cell line; ATCC #HTB-26), and PC-3 (human prostate cancer cell line; ATCC #CRL-1435) cells utilizing the MTT assay (Plumb et al., Cancer Res. 49:4435-4440, 1989). Neither of the peptides was cytotoxic at concentrations up to and including 100 μM. Similarly, neither of the peptides was capable of inhibiting the proliferation of the above cell lines at concentrations up to 100 μM, as judged by ^3H-thymidine incorporation assays.

[8] = system: HUVEC; type: cell-based, human; settings: 3 h
Experimental: as §2

[9] = system: IAFp2; type: cell-based, human; settings: 3 h
Experimental: as §2

[10] = system: MDA-MB231; type: cell-based, human; settings: 3 h
Experimental: as §2

[11] = system: PC-3; type: cell-based, human; settings: 3 h
Experimental: as §2

[12] = system: WI-38; type: cell-based, human; settings: 3 h
Experimental: as §2

[13] = system: MDA-MB231; assay: Cytotoxicity, MTT assay, MDA-MB231; type: cell-based, human
Experimental: as §2

[14] = system: PC-3; assay: Cytotoxicity, MTT assay, PC-3; type: cell-based, human
Experimental: as §2

[15] = 250 μg/mL, 16-18 hours, read-out: % Inhibition of N-Cadherin Dependent Neurite Outgrowth

L1, sequence (P32004 20-1257): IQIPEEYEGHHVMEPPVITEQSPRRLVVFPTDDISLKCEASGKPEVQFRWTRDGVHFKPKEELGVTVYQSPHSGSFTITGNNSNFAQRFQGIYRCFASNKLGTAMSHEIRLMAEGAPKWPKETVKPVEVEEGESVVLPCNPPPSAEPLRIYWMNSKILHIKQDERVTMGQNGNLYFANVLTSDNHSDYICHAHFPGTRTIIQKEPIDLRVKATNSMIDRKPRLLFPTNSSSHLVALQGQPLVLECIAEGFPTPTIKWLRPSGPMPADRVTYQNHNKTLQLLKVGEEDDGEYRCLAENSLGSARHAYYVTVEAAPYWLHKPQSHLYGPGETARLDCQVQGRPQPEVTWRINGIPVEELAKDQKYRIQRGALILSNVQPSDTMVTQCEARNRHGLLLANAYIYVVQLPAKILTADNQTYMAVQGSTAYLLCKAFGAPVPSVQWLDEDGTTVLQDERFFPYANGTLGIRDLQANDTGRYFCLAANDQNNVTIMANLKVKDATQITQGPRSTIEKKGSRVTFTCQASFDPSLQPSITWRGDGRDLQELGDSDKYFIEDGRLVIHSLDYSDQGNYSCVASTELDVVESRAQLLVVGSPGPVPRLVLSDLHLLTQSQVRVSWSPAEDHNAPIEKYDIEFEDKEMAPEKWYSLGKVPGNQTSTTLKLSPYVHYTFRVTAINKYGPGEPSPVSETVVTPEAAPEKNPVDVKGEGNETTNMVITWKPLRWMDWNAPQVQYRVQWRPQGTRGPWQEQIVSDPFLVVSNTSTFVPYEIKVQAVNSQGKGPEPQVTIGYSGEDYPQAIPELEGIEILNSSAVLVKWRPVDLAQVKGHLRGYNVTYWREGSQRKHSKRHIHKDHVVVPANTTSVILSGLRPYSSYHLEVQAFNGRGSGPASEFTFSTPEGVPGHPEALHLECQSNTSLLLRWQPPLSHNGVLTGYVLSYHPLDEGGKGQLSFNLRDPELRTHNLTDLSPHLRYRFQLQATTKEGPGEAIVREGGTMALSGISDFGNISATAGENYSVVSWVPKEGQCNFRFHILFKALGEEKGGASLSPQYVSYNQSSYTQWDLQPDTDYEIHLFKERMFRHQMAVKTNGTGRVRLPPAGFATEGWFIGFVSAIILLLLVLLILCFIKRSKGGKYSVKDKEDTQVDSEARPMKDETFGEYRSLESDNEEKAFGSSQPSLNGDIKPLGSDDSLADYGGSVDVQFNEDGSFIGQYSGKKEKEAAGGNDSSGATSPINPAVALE

In the case of `CC[C@H](C)[C@@H]1NC(=O)[C@H](CC(=O)O)NC(=O)[C@H](C(C)C)NC(=O)[C@H](C)NC(=O)[C@H](Cc2c[nH]cn2)NC(=O)[C@@H](NC(C)=O)CSSC[C@@H](C(N)=O)NC(=O)[C@H](CC(N)=O)NC1=O` (Ac-CHAVDINC-NH2; disulfide 1-8), the “inhibitory activity on N-cadherin dependent neurite outgrowth, structure/activity statements” value ([1]; listed as N—Ac-CHAVDINC-NH2) is reported as “only a slight loss in activity; also recorded: potent inhibitors”, the “effect on electrical resistance across MDCK cells (in words)” value [2] is reported as “complete abrogation of E-cadherin specific activity” and the “EC50, decrease of electrical resistance across MDCK cell monolayer” value [2] is reported as “INACTIVE”. For the same molecule, the inhibition at 125 µg/mL [3] was 1.7 ± 7.3% and the “effect on L1 stimulated neurite outgrowth (in words)” value ([3]; listed as N—Ac-CHAVDINC-NH2) was “did not interfere with the ability of neurons to extend neurites over 3T3 cells expressing L1”.
In the case of `CC(C)[C@@H]1NC(=O)[C@H](C)NC(=O)[C@H](Cc2c[nH]cn2)NC(=O)[C@@H](NC=O)CSSC[C@@H](C(N)=O)NC1=O` [H—C(O)—NH—CHAVC—NH2], the “effect on electrical resistance across MDCK cells (in words)” value [2] is reported as “decrease in potency” and the EC50 [4] is reported as 560 µM.
Work on `CC(=O)N[C@H]1CSSC[C@@H](C(=O)N[C@@H](CO)C(=O)N[C@@H](CO)C(N)=O)NC(=O)[C@H](C(C)C)NC(=O)[C@H](C)NC(=O)[C@H](Cc2c[nH]cn2)NC1=O` [N—Ac—CHAVCSS—NH2] (Ac-CHAVCSS-NH2; disulfide 1-5) yielded an inhibition at 250 µg/mL [1, 15] of 37.8 ± 4% and an EC50 [4] of 430 µM.
Work on `CC(=O)N[C@H]1CSSC[C@@H](C(=O)N[C@@H](CO)C(N)=O)NC(=O)[C@H](C(C)C)NC(=O)[C@H](C)NC(=O)[C@H](Cc2c[nH]cn2)NC1=O` [N—Ac—CHAVCS—NH2] (Ac-CHAVCS-NH2; disulfide 1-5) yielded an inhibition at 250 µg/mL [1, 15] of 6.9 ± 5.4% and an EC50 [4] of 490 µM.
`CC(=O)N[C@H]1CSSC[C@@H](C(=O)N[C@H](C(N)=O)[C@@H](C)O)NC(=O)[C@H](C(C)C)NC(=O)[C@H](C)NC(=O)[C@H](Cc2c[nH]cn2)NC1=O` [N—Ac—CHAVCT—NH2] (Ac-CHAVCT-NH2; disulfide 1-5) was tested, and the inhibition at 250 µg/mL [1, 15] was 23.7 ± 6.6% and the EC50 [4] was 480 µM.
For `CC(=O)N[C@H]1CSSC[C@@H](C(=O)N[C@@H](Cc2ccc(O)cc2)C(N)=O)NC(=O)[C@H](C(C)C)NC(=O)[C@H](C)NC(=O)[C@H](Cc2c[nH]cn2)NC1=O` [N—Ac—CHAVCY—NH2] (Ac-CHAVCY-NH2; disulfide 1-5), the “disruption of SKOV3 cell adhesion” value [5] was “disrupted SKOV3 cell adhesion”, the “% inhibition of N-cadherin dependent neurite outgrowth” value ([1]; 125 μg/mL, 16-18 hours) was 89.8 ± 6.8% and the inhibition at 125 µg/mL ([1]; 125 μg/mL, 16-18 hours, read-out: % Inhibition of N-Cadherin Dependent Neurite Outgrowth) was 89.9%. For the same molecule, the “effect on electrical resistance across MDCK cells (in words)” value [2] was “the most active” and the EC50 [4] was 210 µM.
`CC(=O)N[C@H]1CSSC[C@@H](C(N)=O)NC(=O)[C@H](CC(=O)O)NC(=O)[C@H](C(C)C)NC(=O)[C@H](C)NC(=O)[C@H](Cc2c[nH]cn2)NC1=O` [N—Ac—CHAVDC—NH2] (Ac-CHAVDC-NH2; disulfide 1-6) was tested, and the “inhibition of N-cadherin dependent neurite outgrowth (in words)” value ([1]; 250 μg/mL) was “potent inhibitors of neurite outgrowth”, the “inhibitory activity on N-cadherin dependent neurite outgrowth, structure/activity statements” value [1] was “dramatically increased the inhibitory activity” and the “effect on electrical resistance across MDCK cells (in words)” value [2] was “complete abrogation of E-cadherin specific activity”. For the same molecule, the “EC50, decrease of electrical resistance across MDCK cell monolayer” value [2] was “INACTIVE”, the inhibition at 250 µg/mL [6] was 88% and the inhibition at 125 µg/mL [3] was 9.6 ± 3.3%. The “effect on L1 stimulated neurite outgrowth (in words)” value [3] was “did not interfere with the ability of neurons to extend neurites over 3T3 cells expressing L1”.
Molecule `CC(=O)N[C@H]1CSSC[C@@H](C(N)=O)NC(=O)[C@H](C(C)C)NC(=O)[C@H](C)NC(=O)[C@H](Cc2c[nH]cn2)NC(=O)[C@H](CO)NC1=O` [N—Ac—CSHAVC—NH2, N-Ac-Cys-Ser-His-Ala-Val-Cys-NH2] (Ac-CSHAVC-NH2; disulfide 1-6) has an IC50 [7] greater than 100 µM, an IC50 [8] greater than 100 µM and an IC50 [9] greater than 100 µM. The IC50 [10] was greater than 100 µM, the IC50 [11] was greater than 100 µM and the IC50 [12] was greater than 100 µM. For the same molecule, the IC50 [13] was greater than 100 µM, the IC50 [14] was greater than 100 µM and the “reduction in inhibitory activity on flanking HAV with E-cadherin amino acids” value ([1]; 250 μg/mL (Table 8)) was “complete”. For the same molecule, the inhibition at 250 µg/mL [6] was 0% and the EC50 [4] was 20 µM.
